Data taken from ChEMBL document CHEMBL4190219, “Detection of a Toxic Methylated Derivative of Phomopsin A Produced by the Legume-Infesting Fungus Diaporthe toxica” (J Nat Prod, 2017).

Legend:
HepG2 [1] = test: Cytotoxicity against human HepG2 cells assessed as cell vitality at 1.3 uM after 72 hrs by trypan blue staining based assay (reference value: 1.1 +/- 0.5%); settings: hepg2, 72 h
[2] = Cytotoxicity against human HepG2 cells assessed as cell viability at 2.5 uM after 72 hrs by WST1 assay (reference value: 100%); type: cell-based; settings: read-out: Activity
[3] = Cytotoxicity against human HepG2 cells assessed as cell viability at 5.1 uM after 72 hrs by WST1 assay (reference value: 100%); type: cell-based; settings: read-out: Activity
HepG2 [4] = test: Cytotoxicity against human HepG2 cells assessed as cell viability after 72 hrs by WST1 assay; type: cell-based; settings: for IC50: Homo sapiens, HepG2, 72 h; for Activity: human, hepg2, 72 h
[5] = Cytotoxicity against human HepG2 cells assessed as cell viability at 10.1 uM after 72 hrs by WST1 assay (reference value: 100%); type: cell-based; settings: read-out: Activity
[6] = Cytotoxicity against human HepG2 cells assessed as cell vitality at 10.1 uM after 72 hrs by trypan blue staining based assay (reference value: 1.1 +/- 0.5%); settings: read-out: Activity
[7] = Cytotoxicity against human HepG2 cells assessed as cell viability at 0.1 uM after 72 hrs by WST1 assay (reference value: 100%); type: cell-based; settings: read-out: Activity
HepG2 [8] = test: Cytotoxicity against human HepG2 cells assessed as cell vitality after 72 hrs by trypan blue staining based assay; settings: hepg2, 72 h
[9] = Cytotoxicity against human HepG2 cells assessed as cell viability at 0.4 uM after 72 hrs by WST1 assay (reference value: 100%); type: cell-based; settings: read-out: Activity
[10] = Cytotoxicity against human HepG2 cells assessed as cell vitality at 5.1 uM after 72 hrs by trypan blue staining based assay (reference value: 1.1 +/- 0.5%); settings: read-out: Activity
HepG2 [11] = test: Cytotoxicity against human HepG2 cells assessed as cell vitality at 0.4 uM after 72 hrs by trypan blue staining based assay (reference value: 1.1 +/- 0.5%); settings: hepg2, 72 h
HepG2 [12] = test: Cytotoxicity against human HepG2 cells assessed as cell vitality at 0.1 uM after 72 hrs by trypan blue staining based assay (reference value: 1.1 +/- 0.5%); settings: hepg2, 72 h
HepG2 [13] = test: Cytotoxicity against human HepG2 cells assessed as cell vitality at 2.5 uM after 72 hrs by trypan blue staining based assay (reference value: 1.1 +/- 0.5%); settings: hepg2, 72 h
[14] = Cytotoxicity against human HepG2 cells assessed as cell viability at 1.3 uM after 72 hrs by WST1 assay (reference value: 100%); type: cell-based; settings: read-out: Activity

| Structure (SMILES) | Activity (HepG2 [1]) [%] | viability at 72 h, 2.5 µM [2] [%] | viability at 72 h, 5.1 µM [3] [%] | IC50 (HepG2 [4]) [µM] | Activity (HepG2 [4]) | viability at 72 h, 10.1 µM [5] [%] | viability at 72 h, 10.1 µM [6] [%] | viability at 72 h, 0.1 µM [7] [%] | Activity (HepG2 [8]) | viability at 72 h, 0.4 µM [9] [%] | viability at 72 h, 5.1 µM [10] [%] | Activity (HepG2 [11]) [%] | Activity (HepG2 [12]) [%] | Activity (HepG2 [13]) [%] | viability at 72 h, 1.3 µM [14] [%] |
| --- | --- | --- | --- | --- | --- | --- | --- | --- | --- | --- | --- | --- | --- | --- | --- |
| C=C(C)[C@@H]1NC(=O)[C@H](N(C)C)[C@H](O)c2cc(Cl)c(O)c(c2)O[C@](C)(CC)[C@@H](C(=O)N2CC=C[C@H]2C(=O)N/C(C(=O)N/C(=C/C(=O)O)C(=O)O)=C(\C)CC)NC1=O | 4.7 | 61 | 46 | 6.1 | Dose-dependent effect | 37 | 29.8 | 105 | Dose-dependent effect | 101 | 18.4 | 0.9 | 0.9 | 7.7 | 85 |
| C=C(C)[C@@H]1NC(=O)[C@H](NC)[C@H](O)c2cc(Cl)c(O)c(c2)O[C@](C)(CC)[C@@H](C(=O)N2CC=C[C@H]2C(=O)N/C(C(=O)N/C(=C/C(=O)O)C(=O)O)=C(\C)CC)NC1=O | 1.6 | 83 | 57 | 8.1 | Dose-dependent effect | 48 | 17 | 106 | Dose-dependent effect | 105 | 9 | 1.1 | 0.5 | 4.3 | 99 |
